We go through three molecules from patent US11696920B2, “Intelligent delivery of ingested and absorbed molecules” (IMMD SP. ZO.O, priority 2016, dated 2023).

The test system of data set [1] is liver lipid metabolism. As to the kind of experiment: Serum triglycerides, DHA and carotenoid-SFA formulations, trial for 4 weeks. The data set is classed as in vivo, human.
Data set [2] relates to LDL. As to the kind of experiment: LDL-Px blood marker, DHA and carotenoid-SFA formulations, trial for 4 weeks. In kind it is in vivo, human. The source says: (§1) Since DHA itself has antioxidant and anti-inflammatory properties it was important to assess whether its formulation with carotenoids and SFA would change them. Comparison of the effects of DHA and its new formulations on blood markers of oxidative and inflammatory damage is presented in Table 7.
It is worth pointing out that the real synergetic effect may be even more profound, because in both of those carotenoid-SFA formulations only half of the dose of the control DHA was used.

A short description of data set [3]: Serum DHA pharmacokinetics after 4 weeks of supplementation with DHA formulations. Particulars: human, in vivo.
For data set [4], the system named is blood markers of oxidative and inflammatory damage. As to the kind of experiment: IOD blood marker, DHA and carotenoid-SFA formulations, trial for 4 weeks. In kind it is in vivo, human.
Description: as §1

Data set [5] deals with liver lipid metabolism. Briefly: Serum LDL cholesterol, DHA and carotenoid-SFA formulations, trial for 4 weeks. In kind it is in vivo, human.
A short description of data set [6]: Serum EPA pharmacokinetics after 4 weeks of supplementation with DHA formulations. Particulars: human, in vivo.
The conditions of data set [7]: publicly available trans-resveratrol formulations; cited from earlier work.

With `CC/C=C\C/C=C\C/C=C\C/C=C\C/C=C\C/C=C\CCC(=O)O` [DHA 500 mg, docosahexaenoic acid], the Triglycerides in data set [1] (0 w) came to 197 ± 18 mg/dL. In data set [1] (4 w), the Triglycerides is recorded as 184 ± 17 mg/dL; the “Triglycerides, % of baseline” value is on record as 93%; the “Δ Triglycerides vs 0 w” value is recorded as “Δ = −13 mg/dL”. The “Reduction of serum triglycerides” value in data set [1] (4 weeks) turned out to be 13 mg/dL. In data set [2] (0 w), the LDL-Px came to 700 ± 76 ELISA × 10^3. In addition, in data set [2] (4 w), the LDL-Px was determined as 265 ± 27 ELISA × 10^3; the “LDL-Px, % of baseline” value is 38%; the “Δ LDL-Px vs 0 w” value is listed as “Δ = −435 ELISA × 10^3”. Moreover, in data set [3], the concentration at 0 weeks was determined as 106 ± 11 µg/mL, the concentration at 2 weeks was 134 ± 12 µg/mL and the concentration at 4 weeks stood at 108 ± 12 µg/mL. Also, in data set [3] (2 weeks), the “Increase in serum DHA” value is recorded as 26% and the “Δ serum DHA vs 0 w” value was “Δ = +28 μg/ml”. Besides, in data set [3] (4 weeks), the “Δ serum DHA vs 0 w” value is recorded as “Δ = +2 μg/ml”. In addition, the “IOD in MDA” value in data set [4] (0 w) is 165 ± 18 µM. Further, in data set [4] (4 w), the “IOD in MDA” value is 107 ± 11 µM; the “IOD, % of baseline” value came out at 65%; the “Δ IOD vs 0 w” value was “Δ = −58 μM”. This molecule also gave an LDL cholesterol in data set [5] (0 w) of 154 ± 16 mg/dL. Moreover, in data set [5] (4 w), the LDL cholesterol was found to be 149 ± 15 mg/dL and the “Δ LDL cholesterol vs 0 w” value is recorded as “Δ = −5 mg/dL”. Also, the “Combined increase in serum EPA” value in data set [6] amounted to 11.6 µg/mL. For the same molecule, the “Serum EPA” value in data set [6] (0 weeks) is 56.5 ± 6.2 µg/mL. Also, in data set [6] (2 weeks), the “Increase in serum EPA” value stood at 21%, the “Serum EPA” value was 68.1 ± 7.4 µg/mL and the “Δ serum EPA vs 0 w” value is reported as “Δ = +11.6 μg/ml”. Moreover, the “Serum EPA” value in data set [6] (4 weeks) is 35.8 ± 5.3 µg/mL.

As to `CC(C)=CCC/C(C)=C/C=C/C(C)=C/C=C/C(C)=C/C=C/C=C(C)/C=C/C=C(C)/C=C/C=C(\C)CCC=C(C)C` [Lycopene 7 mg, Lycopene], the Triglycerides in data set [1] (0 w) is recorded as 155 ± 12 mg/dL. Moreover, in data set [1] (4 w), the Triglycerides came out at 150 ± 13 mg/dL; the “Triglycerides, % of baseline” value amounted to 97%; the “Δ Triglycerides vs 0 w” value is recorded as “Δ = −5 mg/dL”. Also, the “Change in triglyceride concentrations” value in data set [1] (end of the 4-week trial) was “no significant change”. Further, in data set [2] (0 w), the LDL-Px amounted to 133 ± 19 ELISA × 10^3. In addition, in data set [2] (4 w), the LDL-Px was 115 ± 14 ELISA × 10^3; the “LDL-Px, % of baseline” value is listed as 86%; the “Δ LDL-Px vs 0 w” value was “Δ = −18 ELISA × 10^3”. Besides, in data set [4] (0 w), the “IOD in MDA” value came out at 111 ± 12 µM. Besides, in data set [4] (4 w), the “IOD in MDA” value was found to be 79 ± 9 µM; the “IOD, % of baseline” value is on record as 71%; the “Δ IOD vs 0 w” value is listed as “Δ = −32 μM”. The LDL cholesterol in data set [5] (0 w) is 158 ± 17 mg/dL. Moreover, in data set [5] (4 w), the LDL cholesterol amounted to 154 ± 16 mg/dL and the “Δ LDL cholesterol vs 0 w” value was “Δ = −4 mg/dL”. Also, the “Effect on serum LDL level” value in data set [5] (4 weeks) was “did not affect level of LDL”.

Take `Oc1ccc(/C=C/c2cc(O)cc(O)c2)cc1` [trans-resveratrol]: the “Fraction bioavailable after oral consumption” value in data set [7] was 5%.
